Experimental data: patent publication US9011965B2, “Gradient coating for biomedical applications” (Smith & Nephew, Inc., priority 2008, dated 2015)

Test: release of bupivacaine from coated samples in PBS, spectrophotometry at 265 nm
Format: physicochemical
Conditions: released from coated samples, 3 mL PBS, 37° C.
Procedure: The release of Ag, Ca, and Bupivacaine from the prepared coating was confirmed by ICP analysis and UV spectrometry, respectively. The coated samples were immersed in 3 mL PBS for 24 and 48 hours at 37° C. At each time point, the release of bupivacaine was measured spectrophotometrically (Nanodrop, Thermo) at 265 nm. The Bupivacaine standard was prepared by dissolving appropriate amounts of the drug in PBS. PBS was used as blank.

- Bupivacaine Concentration in PBS (24 hours): 126 ppm
- Bupivacaine Concentration in PBS (48 hours): 141 ppm
Structure (SMILES): CCCCN1CCCCC1C(=O)Nc1c(C)cccc1C (centres unmarked) [Bupivacaine]
